# Measurements published in PubChem BioAssay AID330 (DTP/NCI, 2004).
# Where “and” joins values, the source holds several entries; their conditions need not be identical. Equal entries are not always repeated. Inconclusive results and toxic doses are left out.
# Test system: P388 leukemia ip, CD2F1 mice, survival T/C
# Test: NCI In Vivo Anticancer Drug Screen. Data for tumor model P388 Leukemia (intraperitoneal) in CD2F1 (CDF1) mice
# Conditions: endpoint: median survival time, higher = longer survival
# Method in brief: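 Mice carrying the transplanted tumor received test compound or vehicle. Survival was recorded in each group, and the value is the treated-group measurement divided by that of the vehicle-treated control group.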
# [1] = dose: 25.0 mg/kg/injection, schedule: Q01DX009 (ip), vehicle: Klucel (hydroxypropylcellulose) (HPC)
# [2] = dose: 50.0 mg/kg/injection, schedule: Q01DX009 (ip), vehicle: Klucel (hydroxypropylcellulose) (HPC)
# [3] = dose: 100.0 mg/kg/injection, schedule: Q01DX009 (ip), vehicle: Klucel (hydroxypropylcellulose) (HPC)
# [4] = dose: 50.0 mg/kg/injection, schedule: Q04DX003 (ip), vehicle: saline
# [5] = dose: 100.0 mg/kg/injection, schedule: Q04DX003 (ip), vehicle: saline
# [6] = dose: 200.0 mg/kg/injection, schedule: Q01DX009 (ip), vehicle: Klucel (hydroxypropylcellulose) (HPC)
smiles,measurement,setting,value
CN(C)CC1CC1N1c2ccccc2Sc2ccc(Cl)cc21 (stereo unspecified),T/C,[1],99 % of control
same,T/C,[2],101 % of control and 112 % of control
same,T/C,[3],101 % of control and 112 % of control
CCN(CC)Cc1c(C)nc2ccc(N(C)C)cc2c1Cl,T/C,"dose: 12.5 mg/kg/injection, schedule: Q01DX009 (ip), vehicle: Klucel (hydroxypropylcellulose) (HPC)",115 % of control
same,T/C,[1],110 % of control
same,T/C,[2],100 % of control and 96 % of control
COc1ccc(-c2cnc3c(N)nn(C)c3n2)cc1,T/C,"dose: 100.0 mg/kg/injection, schedule: Q04DX003 (ip), vehicle: saline with Tween-80",90 % of control
same,T/C,"dose: 200.0 mg/kg/injection, schedule: Q04DX003 (ip), vehicle: saline with Tween-80",100 % of control
same,T/C,"dose: 400.0 mg/kg/injection, schedule: Q04DX003 (ip), vehicle: saline with Tween-80",105 % of control
c1cc(-c2cc3cc(C4=NCCN4)ccc3s2)ccc1C1=NCCN1,T/C,"dose: 25.0 mg/kg/injection, schedule: Q04DX003 (ip), vehicle: saline",115 % of control
same,T/C,[4],111 % of control
same,T/C,[5],98 % of control
CP1(=O)CC23CCCCC2(C1)O3 (stereo unspecified),T/C,[2],109 % of control
same,T/C,[3],104 % of control
same,T/C,[6],109 % of control
Cc1nn(C(=O)c2ccncc2)c(C)c1N=Nc1cccc(Cl)c1,T/C,[2],99 % of control
same,T/C,[3],100 % of control
same,T/C,[6],98 % of control
CC1CC(Cc2ccccc2)C(=O)CC(C)(C)CC(=O)O1 (stereo unspecified),T/C,[4],100 % of control and 103 % of control and 106 % of control
NC(N)=NS(=O)(=O)c1ccc(N=Nc2c(O)n(-c3ccccc3)n(-c3ccccc3)c2=O)cc1,T/C,[2],88 % of control
same,T/C,[3],94 % of control
CC1C(=O)C(C)C(c2ccc(Cl)cc2)OC1c1ccc(Cl)cc1 (stereo unspecified),T/C,"dose: 50.0 mg/kg/injection, schedule: Q01DX009 (ip), vehicle: saline",112 % of control
same,T/C,"dose: 100.0 mg/kg/injection, schedule: Q01DX009 (ip), vehicle: saline",103 % of control
same,T/C,"dose: 200.0 mg/kg/injection, schedule: Q01DX009 (ip), vehicle: saline",114 % of control
Fc1cccc(F)n1,T/C,"dose: 25.0 mg/kg/injection, schedule: Q04DX003 (ip), vehicle: water",91 % of control
same,T/C,"dose: 50.0 mg/kg/injection, schedule: Q04DX003 (ip), vehicle: water",103 % of control
same,T/C,"dose: 100.0 mg/kg/injection, schedule: Q04DX003 (ip), vehicle: water",100 % of control
same,T/C,"dose: 200.0 mg/kg/injection, schedule: Q04DX003 (ip), vehicle: water",100 % of control
same,T/C,"dose: 400.0 mg/kg/injection, schedule: Q04DX003 (ip), vehicle: water",104 % of control
CN(C)c1ccc(/C=C2/CCC2=O)cc1,T/C,"dose: 100.0 mg/kg/injection, schedule: Q04DX003 (ip), vehicle: Klucel (hydroxypropylcellulose) (HPC)",96 % of control
same,T/C,"dose: 200.0 mg/kg/injection, schedule: Q04DX003 (ip), vehicle: Klucel (hydroxypropylcellulose) (HPC)",97 % of control
same,T/C,"dose: 400.0 mg/kg/injection, schedule: Q04DX003 (ip), vehicle: Klucel (hydroxypropylcellulose) (HPC)",95 % of control
Cn1c(-c2ccccc2)c(C(=O)CC(=O)CN2CCOCC2)c2ccccc21,T/C,"dose: 100.0 mg/kg/injection, schedule: Q01DX001 (ip), vehicle: saline",98 % of control
same,T/C,"dose: 200.0 mg/kg/injection, schedule: Q01DX001 (ip), vehicle: saline",108 % of control
same,T/C,"dose: 400.0 mg/kg/injection, schedule: Q01DX001 (ip), vehicle: saline",97 % of control
CCCCCCCCCCCC#N,T/C,[5],108 % of control
same,T/C,"dose: 200.0 mg/kg/injection, schedule: Q04DX003 (ip), vehicle: saline",104 % of control
same,T/C,"dose: 400.0 mg/kg/injection, schedule: Q04DX003 (ip), vehicle: saline",116 % of control
Cc1ccc(SC2=C(Sc3ccc(C)cc3)C(=O)c3ccccc3C2=O)cc1,T/C,"dose: 25.0 mg/kg/injection, schedule: Q01DX009 (ip), vehicle: saline with Tween-80",102 % of control and 88 % of control
same,T/C,"dose: 50.0 mg/kg/injection, schedule: Q01DX009 (ip), vehicle: saline with Tween-80",116 % of control and 96 % of control
same,T/C,"dose: 100.0 mg/kg/injection, schedule: Q01DX009 (ip), vehicle: saline with Tween-80",99 % of control and 123 % of control
